In brackets after ≈: the same amount, converted by molar mass.
What was measured:
Type in all cases: functional
Klebsiella pneumoniae [1] = experiment: Antibacterial activity against Klebsiella pneumoniae ATCC 14581 by microbroth dilution assay
Klebsiella pneumoniae [2] = experiment: Antibacterial activity against Klebsiella pneumoniae ATCC 10031 assessed as log reduction in bacterial load at 8 times MIC measured after 2 hrs by time kill assay
Klebsiella pneumoniae [3] = experiment: Antibacterial activity against Klebsiella pneumoniae ATCC 10031 by microbroth dilution assay
Pseudomonas aeruginosa [4] = experiment: Antibacterial activity against Pseudomonas aeruginosa ATCC 9027 by microbroth dilution assay
Klebsiella pneumoniae [5] = experiment: Induction of resistance development in Klebsiella pneumoniae ATCC 10031 assessed as fold increase in MIC treated over 20 serial passages by microdilution assay
Pseudomonas aeruginosa [6] = experiment: Antibacterial activity against Pseudomonas aeruginosa ATCC 9027 infected in cyclophosphamide immunosuppressed keratitis mouse model assessed as log reduction in number of viable bacterial colonies at 0.3 % administrated tropically
Staphylococcus aureus [7] = experiment: Antibacterial activity against Staphylococcus aureus ATCC 29213 infected in cyclophosphamide immunosuppressed keratitis mouse model assessed as log reduction in number of viable bacterial colonies at 50 mg/ml administrated tropically
Staphylococcus aureus [8] = experiment: Antibacterial activity against methicillin resistant Staphylococcus aureus N315 by microbroth dilution assay
Staphylococcus aureus [9] = experiment: Antibacterial activity against methicillin resistant Staphylococcus aureus NCTC 10442 by microbroth dilution assay
Staphylococcus aureus [10] = experiment: Antibacterial activity against Staphylococcus aureus ATCC 29213 assessed as log reduction in bacterial load at 4 times MIC measured after 2 hrs by time kill assay
Staphylococcus aureus [11] = experiment: Antibacterial activity against Staphylococcus aureus ATCC 29213 by microbroth dilution assay
Staphylococcus aureus [12] = experiment: Antibacterial activity against Staphylococcus aureus ATCC 29213 assessed as log reduction in bacterial load at 8 times MIC measured after 2 hrs by time kill assay
Staphylococcus aureus [13] = experiment: Antibiofilm activity against 24 hrs preformed biofilm in Staphylococcus aureus ATCC 29213 assessed as residual biomass at 4 times MIC relative to control
Klebsiella pneumoniae [14] = experiment: Inhibition of biofilm formation in Klebsiella pneumoniae ATCC 10031 at MIC by crystal violet staining assay relative to control
Staphylococcus aureus [15] = experiment: Inhibition of biofilm formation in Staphylococcus aureus ATCC 29213 at MIC by crystal violet staining assay relative to control
Klebsiella pneumoniae [16] = experiment: Antibiofilm activity against 24 hrs preformed biofilm in Klebsiella pneumoniae ATCC 10031 assessed as residual biomass at 4 times MIC relative to control

In the case of `O=C(O)c1cn(C2CC2)c2cc(N3CCNCC3)c(F)cc2c1=O` [CIPROFLOXACIN], the MIC (Klebsiella pneumoniae [1]) was 0.195 µg/mL (≈ 0.589 µM), the “log(activity)” value (Klebsiella pneumoniae [2]) was 2.27 and the MIC (Klebsiella pneumoniae [3]) was 0.195 µg/mL (≈ 0.589 µM). The MIC (Pseudomonas aeruginosa [4]) was 0.195 µg/mL (≈ 0.589 µM) and the fold change (FC) (Klebsiella pneumoniae [5]) was 128.

With `NC[C@H]1O[C@H](O[C@H]2[C@H](O)[C@@H](O[C@H]3O[C@H](CO)[C@@H](O)[C@H](N)[C@H]3O)[C@H](N)C[C@@H]2N)[C@H](N)C[C@@H]1O` [TOBRAMYCIN] the “log(activity)” value (Pseudomonas aeruginosa [6]) was 4.71.

In the case of `CN[C@H](CC(C)C)C(=O)N[C@H]1C(=O)N[C@@H](CC(N)=O)C(=O)N[C@H]2C(=O)N[C@H]3C(=O)N[C@H](C(=O)N[C@H](C(=O)O)c4cc(O)cc(O)c4-c4cc3ccc4O)[C@H](O)c3ccc(c(Cl)c3)Oc3cc2cc(c3O[C@@H]2O[C@H](CO)[C@@H](O)[C@H](O)[C@H]2O[C@H]2C[C@](C)(N)[C@H](O)[C@H](C)O2)Oc2ccc(cc2Cl)[C@H]1O` [VANCOMYCIN], the “log(activity)” value (Staphylococcus aureus [7]) was 5.2, the MIC (Staphylococcus aureus [8]) was 1.56 µg/mL (≈ 1.08 µM) and the MIC (Staphylococcus aureus [9]) was 1.56 µg/mL (≈ 1.08 µM). The “log(activity)” value (Staphylococcus aureus [10]) was 0.03, the MIC (Staphylococcus aureus [11]) was 0.78 µg/mL (≈ 0.538 µM) and the “log(activity)” value (Staphylococcus aureus [12]) was 0.15.

With `CC[C@H](C)[C@H](NC(=O)CN)C(=O)NCC(=O)N[C@@H](C)C(=O)N[C@H](C(=O)N[C@@H](CC(C)C)C(=O)N[C@@H](CCCCN)C(=O)N[C@H](C(=O)N[C@@H](CC(C)C)C(=O)N[C@H](C(=O)N[C@H](C(=O)NCC(=O)N[C@@H](CC(C)C)C(=O)N1CCC[C@H]1C(=O)N[C@@H](C)C(=O)N[C@@H](CC(C)C)C(=O)N[C@H](C(=O)N[C@@H](CO)C(=O)N[C@@H](Cc1c[nH]c2ccccc12)C(=O)N[C@H](C(=O)N[C@@H](CCCCN)C(=O)N[C@@H](CCCNC(=N)N)C(=O)N[C@@H](CCCCN)C(=O)N[C@@H](CCCNC(=N)N)C(=O)N[C@@H](CCC(N)=O)C(=O)N[C@@H](CCC(N)=O)C(N)=O)[C@@H](C)CC)[C@@H](C)CC)[C@@H](C)O)[C@@H](C)O)C(C)C)C(C)C` [MELITTIN] the Activity (Staphylococcus aureus [13]) was >10%, the MIC (Klebsiella pneumoniae [1]) was 6.25 µg/mL (≈ 2.2 µM) and the “inhibition (INH)” value (Klebsiella pneumoniae [14]) was >90%. For the same compound, the “inhibition (INH)” value (Staphylococcus aureus [15]) was >90%, the MIC (Klebsiella pneumoniae [3]) was 6.25 µg/mL (≈ 2.2 µM) and the Activity (Klebsiella pneumoniae [16]) was <10%.
